Tests used:
giant foxtail [1] = assay: Test A pre-/postemergence herbicide test; format: in vivo, Setaria faberi; details: for Plant response rating, Foxtail, Giant: Postemergence; for Foxtail, Giant plant response rating: Preemergence
Summary of the method: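 Visual injury rating on a 0–100 scale (0 no effect, 100 complete control) versus untreated controls, about ten days after treatment in greenhouse. Pre: directed soil spray onto seeded sandy loam. Post: spray to runoff on plants 2–10 cm tall at one- to two-leaf stage.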

giant foxtail [2] = assay: Test B pre-/postemergence herbicide test; format: in vivo, Setaria faberi
Summary of the method: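 Evaluation is visual, comparing treated with control plants on a scale where 0 means no effect and 100 means full control. Treatments were preemergence, or postemergence on seedlings 2–18 cm tall, and held 13–15 days in the greenhouse.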

cocklebur = assay: Test C pre-/postemergence herbicide test; format: in vivo, Xanthium strumarium; details: for Cocklebur plant response rating: 500 g ai/ha
Summary of the method: (§1)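 Pre- and postemergence application, solvent/surfactant formulation; post at 1- to 4-leaf stage (2–18 cm). Greenhouse 12–14 d. Visual rating vs controls, 0 = no effect, 100 = complete control.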

corn = assay: Test C pre-/postemergence herbicide test; format: in vivo, Zea mays; details: for Corn plant response rating: 500 g ai/ha
Summary of the method: as §1

kochia = assay: Test C pre-/postemergence herbicide test; format: in vivo, Kochia scoparia; details: for Kochia plant response rating: 500 g ai/ha
Summary of the method: as §1

yellow nutsedge = assay: Test C pre-/postemergence herbicide test; format: in vivo, Cyperus esculentus; details: for Nutsedge, Yellow plant response rating: 500 g ai/ha
Summary of the method: as §1

pigweed = assay: Test C pre-/postemergence herbicide test; format: in vivo, Amaranthus retroflexus; details: for Pigweed plant response rating: 500 g ai/ha
Summary of the method: as §1

ducksalad = assay: Test C flooded paddy test; format: in vivo, Heteranthera limosa; details: for Plant response rating, Ducksalad: visual rating after 12 to 14 days
barnyardgrass = assay: Test C flooded paddy test; format: in vivo, Echinochloa crus-galli; details: for Plant response rating, Barnyardgrass: visual rating after 12 to 14 days
Summary of the method: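 Visual rating, 0 (no effect) to 100 (complete control), vs. controls at 12–14 d in greenhouse. Postemergence: 1–4-leaf plants, 2–18 cm. Paddy: flooded, barnyardgrass at 2-leaf stage.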

[3] = 500 g ai/ha, 0 to 100 scale, 0 no effect, 100 complete control
[4] = 2000 g ai/ha, 0 to 100 scale, 0 no effect, 100 complete control
[5] = 500 g ai/ha, visual rating, 0 to 100 scale (0 no effect, 100 complete control)
[6] = Postemergence, 500 g ai/ha, visual rating after 13 to 15 days, scale 0 (no effect) to 100 (complete control)
[7] = Preemergence, 500 g ai/ha, scale 0 to 100
[8] = preemergence, 125 g ai/ha, 0 to 100 scale, 0 is no effect, 100 is complete control
[9] = 125 g ai/ha, scale 0 (no effect) to 100 (complete control), visual, 12 to 14 days, preemergence
[10] = 250 g ai/ha, scale 0 to 100 (0 no effect, 100 complete control), visual, 12 to 14 days, preemergence
[11] = Postemergence, 125 g ai/ha, scale 0 to 100, 0 no effect, 100 complete control
[12] = Postemergence, 250 g ai/ha, scale 0 to 100, 0 no effect, 100 complete control
[13] = Preemergence, scale 0 to 100, 0 no effect, 100 complete control
[14] = postemergence, 62 g ai/ha, scale 0 to 100
[15] = 62 g ai/ha, scale 0 to 100 (0 no effect, 100 complete control)
[16] = 125 g ai/ha, scale of 0 to 100, 0 is no effect, 100 is complete control
[17] = 250 g ai/ha, scale 0 to 100 (0 no effect, 100 complete control)
[18] = 500 g ai/ha, scale 0 to 100 (0 no effect, 100 complete control)
[19] = 250 g ai/ha, scale of 0 to 100, 0 is no effect, 100 is complete control

## C#CCNC(=O)c1cccc(NC(=O)c2cc(C(C)(C)C)nn2CC)c1 [Compound 47]
Giant foxtail [1]; [3]
  Plant response rating, Foxtail, Giant: 90
Giant foxtail [1]; [4]
  Plant response rating, Foxtail, Giant: 85
  Foxtail, Giant plant response rating: 100
Giant foxtail [1]; [5]
  Foxtail, Giant plant response rating: 90
Giant foxtail [2]; Postemergence, 125 g ai/ha, scale 0 (no effect) to 100 (complete control)
  Foxtail, Giant plant response rating: 30
Giant foxtail [2]; [6]
  Plant response rating, Foxtail, Giant: 30
Giant foxtail [2]; [7]
  Foxtail, Giant plant response rating: 90
Giant foxtail [2]; [8]
  Plant response rating, Foxtail, Giant: 40
cocklebur; 62 g ai/ha, preemergence
  Plant response rating (0 = no effect, 100 = complete control), Cocklebur: 0
cocklebur; [9]
  Plant response rating, Cocklebur: 0
cocklebur; [10]
  Plant response rating, Cocklebur: 0
cocklebur; Postemergence, scale 0 to 100
  Cocklebur plant response rating: 90
cocklebur; [11]
  Plant response rating, Cocklebur: 70
cocklebur; [12]
  Plant response rating, Cocklebur: 70
cocklebur; [13]
  Cocklebur plant response rating: 100
cocklebur; [14]
  Plant response rating, Cocklebur: 50
corn; 62 g ai/ha, preemergence
  Plant response rating (0 = no effect, 100 = complete control), Corn: 0
corn; [9]
  Plant response rating, Corn: 0
corn; [10]
  Plant response rating, Corn: 0
corn; Postemergence, scale 0 to 100
  Corn plant response rating: 80
corn; [11]
  Plant response rating, Corn: 70
corn; [12]
  Plant response rating, Corn: 80
corn; [13]
  Corn plant response rating: 10
corn; [14]
  Plant response rating, Corn: 70
kochia; 62 g ai/ha, preemergence
  Plant response rating (0 = no effect, 100 = complete control), Kochia: 10
kochia; [9]
  Plant response rating, Kochia: 10
kochia; [10]
  Plant response rating, Kochia: 10
kochia; Postemergence, scale 0 to 100
  Kochia plant response rating: 100
kochia; [11]
  Plant response rating, Kochia: 100
kochia; [12]
  Plant response rating, Kochia: 100
kochia; [13]
  Kochia plant response rating: 40
kochia; [14]
  Plant response rating, Kochia: 100
Yellow nutsedge; 62 g ai/ha, preemergence
  Plant response rating (0 = no effect, 100 = complete control), Nutsedge, Yellow: 0
Yellow nutsedge; [9]
  Plant response rating, Nutsedge, Yellow: 0
Yellow nutsedge; [10]
  Plant response rating, Nutsedge, Yellow: 0
Yellow nutsedge; Postemergence, scale 0 to 100
  Nutsedge, Yellow plant response rating: 30
Yellow nutsedge; [12]
  Plant response rating, Nutsedge, Yellow: 30
Yellow nutsedge; [13]
  Nutsedge, Yellow plant response rating: 0
Yellow nutsedge; [14]
  Plant response rating, Nutsedge, Yellow: 20
pigweed; 62 g ai/ha, preemergence
  Plant response rating (0 = no effect, 100 = complete control), Pigweed: 100
pigweed; [9]
  Plant response rating, Pigweed: 100
pigweed; [10]
  Plant response rating, Pigweed: 100
pigweed; Postemergence, scale 0 to 100
  Pigweed plant response rating: 100
pigweed; [12]
  Plant response rating, Pigweed: 100
pigweed; [13]
  Pigweed plant response rating: 100
pigweed; [14]
  Plant response rating, Pigweed: 100
ducksalad; [15]
  Ducksalad plant response rating: 0
ducksalad; [16]
  Ducksalad plant response rating: 70
ducksalad; [17]
  Plant response rating, Ducksalad: 80
ducksalad; [18]
  Plant response rating, Ducksalad: 80
barnyardgrass; [15]
  Barnyardgrass plant response rating: 0
barnyardgrass; [16]
  Barnyardgrass plant response rating: 0
barnyardgrass; [17]
  Plant response rating, Barnyardgrass: 40
barnyardgrass; [18]
  Plant response rating, Barnyardgrass: 40

## CCNC(=O)c1cc(NC(=O)c2cc(C(C)(C)C)nn2CC)ccc1F [Compound 58]
Giant foxtail [1]; [3]
  Plant response rating, Foxtail, Giant: 45
Giant foxtail [1]; [4]
  Plant response rating, Foxtail, Giant: 60
  Foxtail, Giant plant response rating: 95
Giant foxtail [1]; [5]
  Foxtail, Giant plant response rating: 85
Giant foxtail [2]; [6]
  Plant response rating, Foxtail, Giant: 20
Giant foxtail [2]; [7]
  Foxtail, Giant plant response rating: 100
Giant foxtail [2]; postemergence, 125 g ai/ha, visual rating, scale 0 (no effect) to 100 (complete control)
  Foxtail, Giant plant response rating: 20
Giant foxtail [2]; [8]
  Plant response rating, Foxtail, Giant: 100
cocklebur; 62 g ai/ha, preemergence
  Plant response rating (0 = no effect, 100 = complete control), Cocklebur: 0
cocklebur; [9]
  Plant response rating, Cocklebur: 5
cocklebur; [10]
  Plant response rating, Cocklebur: 10
cocklebur; Postemergence, scale 0 to 100
  Cocklebur plant response rating: 50
cocklebur; [11]
  Plant response rating, Cocklebur: 20
cocklebur; [12]
  Plant response rating, Cocklebur: 20
cocklebur; [13]
  Cocklebur plant response rating: 30
cocklebur; [14]
  Plant response rating, Cocklebur: 15
corn; 62 g ai/ha, preemergence
  Plant response rating (0 = no effect, 100 = complete control), Corn: 0
corn; [9]
  Plant response rating, Corn: 0
corn; [10]
  Plant response rating, Corn: 0
corn; Postemergence, scale 0 to 100
  Corn plant response rating: 15
corn; [11]
  Plant response rating, Corn: 5
corn; [12]
  Plant response rating, Corn: 5
corn; [13]
  Corn plant response rating: 0
corn; [14]
  Plant response rating, Corn: 0
kochia; 62 g ai/ha, preemergence
  Plant response rating (0 = no effect, 100 = complete control), Kochia: 95
kochia; [9]
  Plant response rating, Kochia: 95
kochia; [10]
  Plant response rating, Kochia: 95
kochia; Postemergence, scale 0 to 100
  Kochia plant response rating: 85
kochia; [11]
  Plant response rating, Kochia: 80
kochia; [12]
  Plant response rating, Kochia: 80
kochia; [13]
  Kochia plant response rating: 100
kochia; [14]
  Plant response rating, Kochia: 75
Yellow nutsedge; 62 g ai/ha, preemergence
  Plant response rating (0 = no effect, 100 = complete control), Nutsedge, Yellow: 10
Yellow nutsedge; [9]
  Plant response rating, Nutsedge, Yellow: 20
Yellow nutsedge; [10]
  Plant response rating, Nutsedge, Yellow: 50
Yellow nutsedge; Postemergence, scale 0 to 100
  Nutsedge, Yellow plant response rating: 5
Yellow nutsedge; [12]
  Plant response rating, Nutsedge, Yellow: 5
Yellow nutsedge; [13]
  Nutsedge, Yellow plant response rating: 50
Yellow nutsedge; [14]
  Plant response rating, Nutsedge, Yellow: 0
pigweed; 62 g ai/ha, preemergence
  Plant response rating (0 = no effect, 100 = complete control), Pigweed: 100
pigweed; [9]
  Plant response rating, Pigweed: 100
pigweed; [10]
  Plant response rating, Pigweed: 100
pigweed; Postemergence, scale 0 to 100
  Pigweed plant response rating: 85
pigweed; [12]
  Plant response rating, Pigweed: 70
pigweed; [13]
  Pigweed plant response rating: 100
pigweed; [14]
  Plant response rating, Pigweed: 60
ducksalad; [15]
  Ducksalad plant response rating: 0
ducksalad; [16]
  Ducksalad plant response rating: 15
ducksalad; [19]
  Ducksalad plant response rating: 20
ducksalad; [18]
  Plant response rating, Ducksalad: 60
barnyardgrass; [15]
  Barnyardgrass plant response rating: 0
barnyardgrass; [16]
  Barnyardgrass plant response rating: 10
barnyardgrass; [19]
  Barnyardgrass plant response rating: 35
barnyardgrass; [18]
  Plant response rating, Barnyardgrass: 85
